Measurements as given in US20130205416A1 (priority 2010, published 2013).
Ends that are not written are not given here.

Tested on: A/WSN/33 H1N1 virus
Assay type: cell-based, Influenza A virus

Q: For RRKKWLVFFVIYFFR [FP4, RRKKWLVFFVIYFFR], which knockdown is on record?
A: 100%
